In patent US5023239A, “Sialosyl cholesterol, process for producing the same, and neuropathy remedy comprising the same” (MECT Corporation, priority 1986, dated 1991):

Tests used:
[1] = test system: Neuroblastoma Cell, Neuro 2a Strain; test: Effect on proliferation / neurite propagation of neuroblastoma cell, Neuro 2a strain; type: cell-based, mouse; conditions: for activity (in words): 24 hours cultivation; for minimal effective concentration: 48 hours after addition
Method: Experiments for confirming the activity of the present compound for promoting propagation of neurites will be explained below.
Effect On Proliferation of Neuroblastoma Cell, Neuro 2a Strain
Neuro 2a was floated on culture medium consisting of 90% of Dulbecco's Modified Eagle's Midium, and 10% of fetal calf serum (FCS), and containing 100 units/ml of penicillin G and 100 micro g/ml of streptomycin sulfate, and then cultivated at 37° C. in a carbon dioxide incubator containing air into which 5% of carbon dioxide was incorporated. The vessel as used was a polystyrene tray having a diameter of 60 mm. 1 to 2×10^4 of the neuroblastoma cells were implanted in each tray and cultivated for 48 hours. The FCS-containing culture was removed from the resultant cell culture. […] When 24 and 48 hours had passed after the addition of these medicines, the number of the living cells increased in the culture, the number of the neurites increased, and the length of the neurites were measured. The experiment was conducted on three trays with respect to each concentration. The resultant data were expressed by average value+standard error (S.E).

ddy male mice = test: Acute toxicity test, intravenous injection; type: in vivo, mouse; conditions: ddy male mice of 45 weeks age
Method: Acute toxicity test was conducted by intravenously injecting the compounds into ddy male mice of 45 weeks age.

Compound: <NAcNeu (alpha 2-8) NAcNeu (alpha 2-3)>Gal (beta 1-3) GalNAc (beta 1-4)- NAcNeu-(alpha 2-8) <NAcNeu- (alpha 2-3)>-Gal (beta 1-4) Glc (beta 1-1)-Ceramide [GQlb]
- activity (in words) [1]: do not provide any activity
- Length of neurite ± S.E. ([1]; 24 hrs, 10 ng/ml): 88.5 ± 5.00 μm/cell
- Number of neurite propagated cells ([1]; 24 hrs, 10 ng/ml): 174
- Number of neurites ± S.E. ([1]; 24 hrs, 10 ng/ml): 1.3 ± 0.05 number/cell
- Rate of neurite propagation (%) ([1]; 24 hrs, 10 ng/ml): 51.8%
- Total number of cells ([1]; 24 hrs, 10 ng/ml): 336
- Length of neurite ± S.E. ([1]; 24 hrs, 100 ng/ml): 86.0 ± 4.72 μm/cell
- Number of neurite propagated cells ([1]; 24 hrs, 100 ng/ml): 159
- Number of neurites ± S.E. ([1]; 24 hrs, 100 ng/ml): 1.3 ± 0.04 number/cell
- Rate of neurite propagation (%) ([1]; 24 hrs, 100 ng/ml): 48.0%
- Total number of cells ([1]; 24 hrs, 100 ng/ml): 331
- Length of neurite ± S.E. ([1]; 24 hrs, 1 μg/ml): 97.6 ± 4.95 μm/cell
- Number of neurite propagated cells ([1]; 24 hrs, 1 μg/ml): 157
- Number of neurites ± S.E. ([1]; 24 hrs, 1 μg/ml): 1.4 ± 0.05 number/cell
- Rate of neurite propagation (%) ([1]; 24 hrs, 1 μg/ml): 51.0%
- Total number of cells ([1]; 24 hrs, 1 μg/ml): 308
- Length of neurite ± S.E. ([1]; 24 hrs, 10 μg/ml): 114.9 ± 5.98 μm/cell
- Number of neurite propagated cells ([1]; 24 hrs, 10 μg/ml): 205
- Number of neurites ± S.E. ([1]; 24 hrs, 10 μg/ml): 1.4 ± 0.06 number/cell
- Rate of neurite propagation (%) ([1]; 24 hrs, 10 μg/ml): 63.9%
- Total number of cells ([1]; 24 hrs, 10 μg/ml): 321
- minimal effective concentration [1]: 10 micro g/ml
- Length of neurite ± S.E. ([1]; 48 hrs, 10 ng/ml): 100.4 ± 5.76 μm/cell
- Number of neurite propagated cells ([1]; 48 hrs, 10 ng/ml): 158
- Number of neurites ± S.E. ([1]; 48 hrs, 10 ng/ml): 1.5 ± 0.06 number/cell
- Rate of neurite propagation (%) ([1]; 48 hrs, 10 ng/ml): 42.6%
- Total number of cells ([1]; 48 hrs, 10 ng/ml): 371
- Length of neurite ± S.E. ([1]; 48 hrs, 100 ng/ml): 90.4 ± 6.06 μm/cell
- Number of neurite propagated cells ([1]; 48 hrs, 100 ng/ml): 153
- Number of neurites ± S.E. ([1]; 48 hrs, 100 ng/ml): 1.2 ± 0.04 number/cell
- Rate of neurite propagation (%) ([1]; 48 hrs, 100 ng/ml): 44.1%
- Total number of cells ([1]; 48 hrs, 100 ng/ml): 347
- Length of neurite ± S.E. ([1]; 48 hrs, 1 μg/ml): 106.5 ± 6.40 μm/cell
- Number of neurite propagated cells ([1]; 48 hrs, 1 μg/ml): 182
- Number of neurites ± S.E. ([1]; 48 hrs, 1 μg/ml): 1.3 ± 0.04 number/cell
- Rate of neurite propagation (%) ([1]; 48 hrs, 1 μg/ml): 47.4%
- Total number of cells ([1]; 48 hrs, 1 μg/ml): 384
- Length of neurite ± S.E. ([1]; 48 hrs, 10 μg/ml): 122.5 ± 6.99 μm/cell
- Number of neurite propagated cells ([1]; 48 hrs, 10 μg/ml): 214
- Number of neurites ± S.E. ([1]; 48 hrs, 10 μg/ml): 1.3 ± 0.04 number/cell
- Rate of neurite propagation (%) ([1]; 48 hrs, 10 μg/ml): 61.8%
- Total number of cells ([1]; 48 hrs, 10 μg/ml): 346

Compound: Gal (beta 1-3) GalNac (beta 1-4 ) <NAcNeu-(alpha2-3)>Gal (beta 1-4) Glc (beta 1-1)-Ceramide [GM1]
- activity (in words) [1]: do not provide any activity
- Length of neurite ± S.E. ([1]; 24 hrs, 10 ng/ml): 94.9 ± 6.64 μm/cell
- Number of neurite propagated cells ([1]; 24 hrs, 10 ng/ml): 145
- Number of neurites ± S.E. ([1]; 24 hrs, 10 ng/ml): 1.4 ± 0.05 number/cell
- Rate of neurite propagation (%) ([1]; 24 hrs, 10 ng/ml): 43.4%
- Total number of cells ([1]; 24 hrs, 10 ng/ml): 334
- Length of neurite ± S.E. ([1]; 24 hrs, 100 ng/ml): 101.1 ± 5.09 μm/cell
- Number of neurite propagated cells ([1]; 24 hrs, 100 ng/ml): 142
- Number of neurites ± S.E. ([1]; 24 hrs, 100 ng/ml): 1.4 ± 0.06 number/cell
- Rate of neurite propagation (%) ([1]; 24 hrs, 100 ng/ml): 47.8%
- Total number of cells ([1]; 24 hrs, 100 ng/ml): 297
- Length of neurite ± S.E. ([1]; 24 hrs, 1 μg/ml): 109.7 ± 6.44 μm/cell
- Number of neurite propagated cells ([1]; 24 hrs, 1 μg/ml): 140
- Number of neurites ± S.E. ([1]; 24 hrs, 1 μg/ml): 1.4 ± 0.06 number/cell
- Rate of neurite propagation (%) ([1]; 24 hrs, 1 μg/ml): 42.2%
- Total number of cells ([1]; 24 hrs, 1 μg/ml): 332
- Length of neurite ± S.E. ([1]; 24 hrs, 10 μg/ml): 89.3 ± 4.77 μm/cell
- Number of neurite propagated cells ([1]; 24 hrs, 10 μg/ml): 149
- Number of neurites ± S.E. ([1]; 24 hrs, 10 μg/ml): 1.4 ± 0.05 number/cell
- Rate of neurite propagation (%) ([1]; 24 hrs, 10 μg/ml): 45.8%
- Total number of cells ([1]; 24 hrs, 10 μg/ml): 325
- Length of neurite ± S.E. ([1]; 24 hrs, 100 μg/ml): 90.5 ± 3.88 μm/cell
- Number of neurite propagated cells ([1]; 24 hrs, 100 μg/ml): 172
- Number of neurites ± S.E. ([1]; 24 hrs, 100 μg/ml): 1.8 ± 0.06 number/cell
- Rate of neurite propagation (%) ([1]; 24 hrs, 100 μg/ml): 55.5%
- Total number of cells ([1]; 24 hrs, 100 μg/ml): 310
- minimal effective concentration [1]: 10 micro g/ml
- Length of neurite ± S.E. ([1]; 48 hrs, 10 ng/ml): 93.7 ± 5.07 μm/cell
- Number of neurite propagated cells ([1]; 48 hrs, 10 ng/ml): 194
- Number of neurites ± S.E. ([1]; 48 hrs, 10 ng/ml): 1.4 ± 0.05 number/cell
- Rate of neurite propagation (%) ([1]; 48 hrs, 10 ng/ml): 58.3%
- Total number of cells ([1]; 48 hrs, 10 ng/ml): 333
- Length of neurite ± S.E. ([1]; 48 hrs, 100 ng/ml): 108.8 ± 5.97 μm/cell
- Number of neurite propagated cells ([1]; 48 hrs, 100 ng/ml): 156
- Number of neurites ± S.E. ([1]; 48 hrs, 100 ng/ml): 1.4 ± 0.06 number/cell
- Rate of neurite propagation (%) ([1]; 48 hrs, 100 ng/ml): 44.7%
- Total number of cells ([1]; 48 hrs, 100 ng/ml): 349
- Length of neurite ± S.E. ([1]; 48 hrs, 1 μg/ml): 109.2 ± 6.09 μm/cell
- Number of neurite propagated cells ([1]; 48 hrs, 1 μg/ml): 211
- Number of neurites ± S.E. ([1]; 48 hrs, 1 μg/ml): 1.3 ± 0.04 number/cell
- Rate of neurite propagation (%) ([1]; 48 hrs, 1 μg/ml): 59.9%
- Total number of cells ([1]; 48 hrs, 1 μg/ml): 352
- Length of neurite ± S.E. ([1]; 48 hrs, 10 μg/ml): 113.8 ± 5.49 μm/cell
- Number of neurite propagated cells ([1]; 48 hrs, 10 μg/ml): 205
- Number of neurites ± S.E. ([1]; 48 hrs, 10 μg/ml): 1.3 ± 0.04 number/cell
- Rate of neurite propagation (%) ([1]; 48 hrs, 10 μg/ml): 62.1%
- Total number of cells ([1]; 48 hrs, 10 μg/ml): 330
- Length of neurite ± S.E. ([1]; 48 hrs, 100 μg/ml): 98.9 ± 5.22 μm/cell
- Number of neurite propagated cells ([1]; 48 hrs, 100 μg/ml): 193
- Number of neurites ± S.E. ([1]; 48 hrs, 100 μg/ml): 1.5 number/cell
- Rate of neurite propagation (%) ([1]; 48 hrs, 100 μg/ml): 60.9%
- Total number of cells ([1]; 48 hrs, 100 μg/ml): 317

Compound: CC(=O)NC1C(O)CC(OC2CCC3(C)C(=CCC4C3CCC3(C)C(C(C)CCCC(C)C)CCC43)C2)(C(=O)O)OC1C(O)C(O)CO [Compound (5), sodium 5-acetoamide-2-O-(5-cholesten-3-beta-yl)-3,5-dideoxy-beta-D-glycero-D-galacto-2-nonulopyranosonate]
- LD50 (ddy male mice): 291 mg/kg
- activity (in words) ([1]; 10 ng/ml): indicated activity
- Length of neurite ± S.E. ([1]; 24 hrs, 10 ng/ml): 89.4 ± 4.23 μm/cell
- Number of neurite propagated cells ([1]; 24 hrs, 10 ng/ml): 124
- Number of neurites ± S.E. ([1]; 24 hrs, 10 ng/ml): 1.3 ± 0.05 number/cell
- Rate of neurite propagation (%) ([1]; 24 hrs, 10 ng/ml): 34.3%
- Total number of cells ([1]; 24 hrs, 10 ng/ml): 361
- Length of neurite ± S.E. ([1]; 24 hrs, 100 ng/ml): 116.4 ± 5.59 μm/cell
- Number of neurite propagated cells ([1]; 24 hrs, 100 ng/ml): 156
- Number of neurites ± S.E. ([1]; 24 hrs, 100 ng/ml): 1.2 ± 0.03 number/cell
- Rate of neurite propagation (%) ([1]; 24 hrs, 100 ng/ml): 40.6%
- Total number of cells ([1]; 24 hrs, 100 ng/ml): 384
- Length of neurite ± S.E. ([1]; 24 hrs, 1 μg/ml): 130.8 ± 5.16 μm/cell
- Number of neurite propagated cells ([1]; 24 hrs, 1 μg/ml): 213
- Number of neurites ± S.E. ([1]; 24 hrs, 1 μg/ml): 1.2 ± 0.04 number/cell
- Rate of neurite propagation (%) ([1]; 24 hrs, 1 μg/ml): 53.8%
- Total number of cells ([1]; 24 hrs, 1 μg/ml): 396
- minimal effective concentration [1]: 100 ng/mL
- Length of neurite ± S.E. ([1]; 48 hrs, 10 ng/ml): 110.6 ± 4.93 μm/cell
- Number of neurite propagated cells ([1]; 48 hrs, 10 ng/ml): 226
- Number of neurites ± S.E. ([1]; 48 hrs, 10 ng/ml): 1.2 ± 0.04 number/cell
- Rate of neurite propagation (%) ([1]; 48 hrs, 10 ng/ml): 47.9%
- Total number of cells ([1]; 48 hrs, 10 ng/ml): 472
- Length of neurite ± S.E. ([1]; 48 hrs, 100 ng/ml): 135.1 ± 6.23 μm/cell
- Number of neurite propagated cells ([1]; 48 hrs, 100 ng/ml): 212
- Number of neurites ± S.E. ([1]; 48 hrs, 100 ng/ml): 1.3 ± 0.04 number/cell
- Rate of neurite propagation (%) ([1]; 48 hrs, 100 ng/ml): 50.2%
- Total number of cells ([1]; 48 hrs, 100 ng/ml): 422
- Length of neurite ± S.E. ([1]; 48 hrs, 1 μg/ml): 138.9 ± 5.39 μm/cell
- Number of neurite propagated cells ([1]; 48 hrs, 1 μg/ml): 252
- Number of neurites ± S.E. ([1]; 48 hrs, 1 μg/ml): 1.2 ± 0.03 number/cell
- Rate of neurite propagation (%) ([1]; 48 hrs, 1 μg/ml): 55.5%
- Total number of cells ([1]; 48 hrs, 1 μg/ml): 454
- growth / propagation of neurites (in words) ([1]; Neuro 2a culture): strong activity for the propagation of the neurites
- activity relative to GMl (times as high) ([1]; vs GMl, from minimal effective concentrations at 48 hours, molecular weights considered): 42 times
- activity relative to GQlb (times as high) ([1]; vs GQlb, from minimal effective concentrations at 48 hours, molecular weights considered): 27 times
